Data taken from the supplement of paper PMC10307832.

How the values were obtained:
Experiment in all cases: relative viability (nuclei count vs DMSO), 5 days (fraction); higher = more cells survive
[1] = compound: CC(O)(CS(=O)(=O)c1ccc(F)cc1)C(=O)Nc1ccc(C#N)c(C(F)(F)F)c1 [Bicalutamide] + CS(=O)(=O)CCNCc1ccc(-c2ccc3ncnc(Nc4ccc(OCc5cccc(F)c5)c(Cl)c4)c3c2)o1 [Lapatinib] (partner 2 µM)
Method in brief: (§1)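 Lung cancer cell lines were seeded in 1536-well plates and dosed by pin tool the next day, with either a single drug or a fixed anchor-drug dose combined with five library-drug doses (not always all listed) spaced in √10 steps. Five days later, one step fixed the cells and stained their nuclei (final 0.05% Triton X-100, 1% formaldehyde, 1 ug/ml Hoechst), and nuclei were counted on 4× images. Relative viability is the nuclei count in treated wells divided by the count in vehicle wells, and each value is the median of duplicate plates.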

[2] = compound: C(C(=O)C(=O)O)Br [Bromopyruvate] + N=C(N)NC(=N)NCCc1ccccc1 [Phenformin] (partner 250 µM)
Method in brief: as §1

[3] = compound: C(C(=O)C(=O)O)Br [Bromopyruvate] + Cc1cc(Nc2cc(N3CCN(C)CC3)nc(Sc3ccc(NC(=O)C4CC4)cc3)n2)n[nH]1 [Tozasertib] (partner 0.1 µM)
Method in brief: as §1

[4] = compound: CC(O)(CS(=O)(=O)c1ccc(F)cc1)C(=O)Nc1ccc(C#N)c(C(F)(F)F)c1 [Bicalutamide] + CC(C)C[C@H](NC(=O)[C@H](Cc1ccccc1)NC(=O)c1cnccn1)B(O)O [Bortezomib] (partner 0.002 µM)
Method in brief: as §1

Cell Line	relative viability ([1]; first compound 0.08 µM)	relative viability ([1]; first compound 0.253 µM)	relative viability ([1]; first compound 0.8 µM)	relative viability ([1]; first compound 2.53 µM)	relative viability ([2]; first compound 1 µM)	relative viability ([2]; first compound 3.162 µM)	relative viability ([2]; first compound 10 µM)	relative viability ([2]; first compound 31.62 µM)	relative viability ([2]; first compound 100 µM)	relative viability ([3]; first compound 1 µM)	relative viability ([3]; first compound 3.162 µM)	relative viability ([3]; first compound 10 µM)	relative viability ([3]; first compound 31.62 µM)	relative viability ([3]; first compound 100 µM)	relative viability ([4]; first compound 0.08 µM)	relative viability ([4]; first compound 0.253 µM)	relative viability ([4]; first compound 0.8 µM)	relative viability ([4]; first compound 2.53 µM)
201T	1.07	0.95	1.06	1.02	0.504	0.489	0.481	0.453	0.455	0.916	0.954	0.99	1.02	0.982	1.1	1.06	1.08	1.12
A549	1.12	0.959	1.04	0.778	0.17	0.16	0.0997	0.234	0.22									
A-427	0.945	1.08	1.19	1.1	0.417	0.353	0.25	0.335	0.261	0.22	0.216	0.176	0.162	0.151	1.04	1.12	1	0.93
ABC-1	1.45	1.06	1.26	1.28	0.24	0.262	0.271	0.262	0.239	0.178	0.195	0.155	0.146	0.166	0.311	0.232	0.328	0.319
BEN	0.674	0.589	0.984	0.858	0.279	0.265	0.266	0.262	0.279	0.556	0.558	0.426	0.499	0.402	0.847	0.667	1.18	0.917
CAL-12T	0.809	0.661	0.891	0.581	0.556	0.491	0.667	0.58	0.529	0.362	0.589	0.242	0.294	0.308	0.942	0.858	1.12	0.768
COR-L23	0.941	0.921	1.2	0.998	0.433	0.435	0.459	0.411	0.227	0.198	0.202	0.183	0.204	0.0755	1.09	0.862	1.13	0.926
COR-L 105	0.333	0.353	0.39	0.311	0.488	0.438	0.484	0.405	0.391	0.36	0.34	0.279	0.352	0.435	0.761	0.87	0.98	0.501
Calu-6	1.16	1.01	1.12	1.08											1.08	0.857	1.05	0.922
ChaGo-K-1					0.581	0.531	0.511	0.473	0.411	0.234	0.263	0.247	0.216	0.205	0.973	1.05	1.17	0.864
EBC-1	0.209	0.206	0.211	0.214											0.584	0.537	0.592	0.477
EKVX	0.194	0.247	0.192	0.207	0.256	0.24	0.243	0.246	0.233	0.427	0.391	0.458	0.377	0.421	0.994	1.1	1.37	0.952
EMC-BAC-2	0.85	0.735	0.912	0.833	0.517	0.519	0.637	0.548	0.571	0.295	0.289	0.317	0.267	0.314	1.04	0.968	1.15	0.929
EPLC-272H	0.788	0.771	0.92	0.875	0.31	0.314	0.309	0.367	0.347	0.257	0.372	0.241	0.325	0.215	0.873	0.666	0.904	0.894
H3255	0.112	0.239	0.315	0.198	0.365	0.421	0.432	0.399	0.37	0.613	0.771	0.686	0.702	0.829	0.798	0.632	0.783	0.698
HARA	0.841	0.514	0.904	0.701	0.496	0.431	0.503	0.483	0.476	0.13	0.122	0.0899	0.13	0.102	1.15	1.02	1.14	1.22
HCC-15	0.797	0.813	0.966	0.875	0.472	0.5	0.521	0.466	0.456	0.393	0.546	0.286	0.371	0.399	1.03	0.953	1.21	0.983
HCC-44	1.05	0.987	1.12	1.05	0.346	0.191	0.185	0.184	0.16	0.953	1	0.997	1.02	0.882	0.936	0.953	0.961	0.989
HCC-78	0.74	0.977	0.91	0.682	0.644	0.719	0.759	0.516	0.657	0.375	0.404	0.481	0.311	0.536	0.498	0.504	0.479	0.556

Cell Line	relative viability ([1]; first compound 0.08 µM)	relative viability ([1]; first compound 0.253 µM)	relative viability ([1]; first compound 0.8 µM)	relative viability ([1]; first compound 2.53 µM)	relative viability ([2]; first compound 1 µM)	relative viability ([2]; first compound 3.162 µM)	relative viability ([2]; first compound 10 µM)	relative viability ([2]; first compound 31.62 µM)	relative viability ([2]; first compound 100 µM)	relative viability ([3]; first compound 1 µM)	relative viability ([3]; first compound 3.162 µM)	relative viability ([3]; first compound 10 µM)	relative viability ([3]; first compound 31.62 µM)	relative viability ([3]; first compound 100 µM)	relative viability ([4]; first compound 0.08 µM)	relative viability ([4]; first compound 0.253 µM)	relative viability ([4]; first compound 0.8 µM)	relative viability ([4]; first compound 2.53 µM)
IA-LM	0.969	0.958	1.02	0.711											0.819	0.86	0.966	0.837
LCLC-103H					0.343	0.338	0.371	0.362	0.365	0.515	0.446	0.466	0.466	0.544	1.1	1.08	1.15	1
LK-2	0.901	0.852	1.11	0.898	0.411	0.673	0.432	0.57	0.496	0.171	0.169	0.174	0.179	0.177				
NCI-H358	0.471	0.475	0.524	0.51	0.406	0.327	0.351	0.304	0.315	0.0956	0.115	0.104	0.0945	0.0906				
NCI-H441					0.852	0.945	0.796	0.743	0.838	0.597	0.614	0.605	0.615	0.565	0.566		0.531	0.398
NCI-H522					0.599	0.654	0.641	0.679	0.574	0.616	0.549	0.547	0.485	0.391				
NCI-H1299	0.92	0.966	0.971	0.929											0.974	1.05	0.969	1.04
NCI-H1395	0.858	0.956	1.29	0.869	0.419	0.43	0.424	0.443	0.445	0.757	0.788	0.834	0.718	0.751				
NCI-H1563	1.19	0.853	0.984	0.776	0.621	0.748	0.643	0.673	0.657						0.973	0.775	0.885	0.767
NCI-H1623					0.545	0.654	0.635	0.588	0.625	0.419	0.423	0.527	0.468	0.369				
NCI-H1648										0.514	0.573	0.412	0.522	0.613				
NCI-H1703	1.16	1.03	1.18	0.643											0.374	0.427	0.317	0.204
NCI-H1792	0.958	0.858	1.03	0.91	0.227	0.345		0.386	0.252						0.983	0.957	0.983	1.07
NCI-H1793	0.637	0.645	1.04	0.832	0.382	0.452	0.455	0.413	0.401	0.371	0.421	0.36	0.391	0.204				
NCI-H1944	0.857	0.607	0.899	0.904	0.218	0.225	0.217	0.206	0.214	0.224	0.266	0.243	0.283	0.273				
NCI-H2170	0.286	0.271	0.268	0.24	0.414	0.487	0.435	0.41	0.379	0.689	0.708	0.798	0.761	0.868				
NCI-H2342					0.574	0.645	0.613	0.479	0.488	0.594	0.616	0.433	0.483	0.412				
SK-MES-1	0.48	0.456	0.472	0.46	0.653	0.651	0.671	0.658	0.668	0.877	0.926	0.948	0.98	0.9				
SW 900					0.645	0.55	0.755	0.706	0.627	0.54	0.455	0.44	0.564	0.514				
